Assay results taken from patent EP4663640A1 (Shanghai Institute of Materia Medica, Chinese Academy of …, priority 2023, dated 2024).

Target: T1, hTRPC5 (Homo sapiens, UniProt Q9UL62)
T1 construct: expressed in transfected cells; host or cells: HEK-293
T1 sequence (Q9UL62 1-973): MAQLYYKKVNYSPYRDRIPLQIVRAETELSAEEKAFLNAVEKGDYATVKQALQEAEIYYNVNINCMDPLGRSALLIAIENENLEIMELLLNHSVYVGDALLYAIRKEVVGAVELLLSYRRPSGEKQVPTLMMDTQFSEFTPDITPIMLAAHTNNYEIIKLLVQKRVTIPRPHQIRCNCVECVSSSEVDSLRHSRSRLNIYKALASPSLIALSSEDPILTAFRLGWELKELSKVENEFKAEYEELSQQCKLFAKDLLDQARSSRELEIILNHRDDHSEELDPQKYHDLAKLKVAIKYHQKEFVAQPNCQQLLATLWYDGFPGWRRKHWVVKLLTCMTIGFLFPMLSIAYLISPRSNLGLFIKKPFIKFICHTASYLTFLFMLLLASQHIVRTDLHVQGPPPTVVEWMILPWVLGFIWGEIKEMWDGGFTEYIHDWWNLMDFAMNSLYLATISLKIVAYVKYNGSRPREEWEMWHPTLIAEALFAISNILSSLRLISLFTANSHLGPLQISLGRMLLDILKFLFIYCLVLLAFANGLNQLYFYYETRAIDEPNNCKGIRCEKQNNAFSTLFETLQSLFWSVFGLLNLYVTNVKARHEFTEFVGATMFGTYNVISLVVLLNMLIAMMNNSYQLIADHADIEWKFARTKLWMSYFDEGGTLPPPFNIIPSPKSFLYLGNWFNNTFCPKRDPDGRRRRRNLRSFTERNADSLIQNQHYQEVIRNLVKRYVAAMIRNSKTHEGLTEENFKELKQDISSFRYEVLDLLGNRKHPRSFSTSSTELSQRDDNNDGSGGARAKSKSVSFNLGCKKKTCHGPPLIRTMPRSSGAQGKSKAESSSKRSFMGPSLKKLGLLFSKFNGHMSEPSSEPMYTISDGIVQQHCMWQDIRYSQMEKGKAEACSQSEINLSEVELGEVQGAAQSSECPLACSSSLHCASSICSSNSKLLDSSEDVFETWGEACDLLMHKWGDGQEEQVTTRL
Test: TRPC5 inhibitory activity assay (FLIPR calcium fluorescence, Englerin A stimulation)
Type: cell-based
Settings: not given
Description: HEK-293 cells expressing hTRPC3, hTRPC4 or hTRPC5 were seeded into black-bottomed 96-well plates coated with poly-lysine (PDL), with 2×10^4 cells per well. After 8 h of culture, the original culture medium was discarded, and 60 µL of Fluo-4/AM dye with a final concentration of 4 µM was added. The plates were incubated at 37 °C for 60 min, and then rinsed five times with calcium flow detection buffer. […] Then, the agonist Englerin A (EA) (MedChemExpress, Shanghai, China, final concentration of 0.3nM) was added, and the fluorescence signal was collected for 600 seconds. The fluorescence signal of the trajectory diagram is represented by F/F0, wherein F is the fluorescence signal at different time points, and F0 is the basic fluorescence signal, that is, the average value of the fluorescence signal at the first 10 time points. […] The area under the curve of the change in fluorescence intensity after adding EA was calculated. IC50 value was calculated using log[Inhibitor] vs. response - Variable slope, taking into account the area under the curve and the log value of the concentration of the compound.

Row | SMILES | IC50 [nM]
1 | Cn1c(=O)n(CCCO)c(=O)c2c1nc(C1CCC3(CC1)OCCO3)n2Cc1ccc(Cl)cc1 [Example E13, 7-(4-chlorobenzyl)-1-(3-hydroxypropyl)-3-methyl-8-(1,4-dioxacyclo[4.5]dec-8-yl)-3,7-dihydro-1H-purine-2,6-dione] | 82.1

Same assay, conditions: Table 1, TRPC5 channels, HEK-293 cells expressing hTRPC5; read-out: FLIPR IC50

Row | IC50 [nM] | SMILES
2 | 69.4 | Cn1c(=O)n(CCCO)c(=O)c2c1cc(C1=CCCC1)n2Cc1ccc(Cl)cc1 [Example E1, 5-(4-chlorobenzyl)-6-(cyclopent-1-en-1-yl)-3-(3-hydroxypropyl)-1-methyl-1,5-dihydro-2H-pyrrolo[3,2-d]pyrimidine-2,4(3H)-dione]
3 | 112 | Cn1c(=O)n(CCCO)c(=O)c2c1cc(C1CCCC1)n2Cc1ccc(Cl)cc1 [Example E2, 5-(4-chlorobenzyl)-6-cyclopentyl-3-(3-hydroxypropyl)-1-methyl-1,5-dihydro-2H-pyrrolo[3,2-d]pyrimidine-2,4(3H)-dione]
4 | 19.3 | CC(C)OC1CC=C(c2nc3c(c(=O)n(CCCO)c(=O)n3C)n2Cc2ccc(Cl)cc2)CC1 (centres unmarked) [Example E8, 7-(4-chlorobenzyl)-1-(3-hydroxypropyl)-8-(4-isopropoxycyclohex-1-en-1-yl)-3-methyl-3,7-dihydro-1H-purine-2,6-dione]
5 | 8.79 | Cn1c(=O)n(CCCO)c(=O)c2c1nc(C1=CCC(C)(C)CC1)n2Cc1ccc(Cl)cc1 [Example E11, 7-(4-chlorobenzyl)-8-(4,4-dimethylcyclohex-1-en-1-yl)-1-(3-hydroxypropyl)-3-methyl-3,7-dihydro-1H-purine-2,6-dione]
6 | 13.5 | Cn1c(=O)n(CCCO)c(=O)c2c1nc(C1CCC(C(F)(F)F)CC1)n2Cc1ccc(Cl)cc1 (centres unmarked) [Example E12, 7-(4-chlorobenzyl)-1-(3-hydroxypropyl)-3-methyl-8-(4-(trifluoromethyl)cyclohexyl)-3,7-dihydro-1H-purine-2,6-dione]
7 | 76 | CC(C)n1c(=O)n(CCCO)c(=O)c2c1nc(C1CC1C1CCCC1)n2Cc1ccc(Cl)cc1 (centres unmarked) [Example E15, 7-(4-chlorobenzyl)-8-(2-cyclopentylcyclopropyl)-1-(3-hydroxypropyl)-3-isopropyl-3,7-dihydro-1H-purine-2,6-dione]
8 | 43.8 | Cn1c(=O)n(CCCO)c(=O)c2c1nc(/C=N/OC(C)(C)C)n2Cc1ccc(Cl)cc1 [Example E18, (E)-7-(4-chlorobenzyl)-1-(3-hydroxypropyl)-3-methyl-2,6-dioxo-2,3,6,7-tetrahydro-1H-purine-8-carbaldehyde-O-(tert-butyl)oxime]
9 | 83.8 | Cn1c(=O)n(CCCO)c(=O)c2c1nc(C1=Cc3ccccc3C1)n2Cc1ccc(Cl)cc1 [Example E20, 7-(4-chlorobenzyl)-1-(3-hydroxypropyl)-8-(1H-inden-2-yl)-3-methyl-3,7-dihydro-1H-purine-2,6-dione]
10 | 198 | COC1(c2nc3c(c(=O)n(CCCO)c(=O)n3C)n2Cc2ccc(Cl)cc2)CCC(C(F)(F)F)CC1 (centres unmarked) [Example E22, 7-(4-chlorobenzyl)-1-(3-hydroxypropyl)-8-(1-methoxy-4-(trifluoromethyl)cyclohexyl)-3-methyl-3,7-dihydro-1H-purine-2,6-dione]
11 | 322 | Cn1c(=O)n(CCCO)c(=O)c2c1nc(C1(O)CCC(C(F)(F)F)CC1)n2Cc1ccc(Cl)cc1 (centres unmarked) [Example E23, 7-(4-chlorobenzyl)-8-(1-hydroxy-4-(trifluoromethyl)cyclohexyl)-1-(3-hydroxypropyl)-3-methyl-3,7-dihydro-1H-purine-2,6-dione]
12 | 281 | CCC1CCC(F)(c2nc3c(c(=O)n(CCCO)c(=O)n3C)n2Cc2ccc(Cl)cc2)CC1 (centres unmarked) [Example E30, 7-(4-chlorobenzyl)-8-(4-ethyl-1-fluorocyclohexyl)-1-(3-hydroxypropyl)-3-methyl-3,7-dihydro-1H-purine-2,6-dione]
13 | 4.63 | CC1CCC(F)(c2nc3c(c(=O)n(CCCO)c(=O)n3C)n2Cc2ccc(Cl)cc2)CC1 (centres unmarked) [Example E39, 7-(4-chlorobenzyl)-8-(1-fluoro-4-methylcyclohexyl)-1-(3-hydroxypropyl)-3-methyl-3,7-dihydro-1H-purine-2,6-dione]
14 | 3.7 | Cn1c(=O)n(CCCO)c(=O)c2c1nc(C1(F)CCC(C#N)CC1)n2Cc1ccc(Cl)cc1 (centres unmarked) [Example E40, 4-(7-(4-chlorobenzyl)-1-(3-hydroxypropyl)-3-methyl-2,6-dioxo-2,3,6,7-tetrahydro-1H-purin-8-yl)-4-fluorocyclohexane-1-carbonitrile]
15 | 55.5 | Cn1c(=O)n(CCCO)c(=O)c2c1nc(C1=CCC(C(F)(F)F)CC1)n2Cc1ccc(Cl)cc1 (centres unmarked) [Example E41, 7-(4-chlorobenzyl)-1-(3-hydroxypropyl)-3-methyl-8-(4-(trifluoromethyl)cyclohex-1-en-1-yl)-3,7-dihydro-1H-purine-2,6-dione]
16 | 3.19 | CCn1c(=O)n(CCCO)c(=O)c2c1nc(C1(F)CCC(C(F)(F)F)CC1)n2Cc1ccc(Cl)c(F)c1 (centres unmarked) [Example E51, 7-(4-chloro-3-fluorobenzyl)-3-ethyl-8-(1-fluoro-4-(trifluoromethyl)cyclohexyl)-1-(3-hydroxypropyl)-3,7-dihydro-1H-purine-2,6-dione]
17 | 41.4 | CC(C)n1c(=O)n(CCCO)c(=O)c2c1nc(C1(F)CCC(C(F)(F)F)CC1)n2Cc1ccc(Cl)cc1 (centres unmarked) [Example E53, 7-(4-chlorobenzyl)-8-(1-fluoro-4-(trifluoromethyl)cyclohexyl)-1-(3-hydroxypropyl)-3-isopropyl-3,7-dihydro-1H-purine-2,6-dione]
18 | 52.9 | CCn1c(=O)n(CCCO)c(=O)c2c1nc(C1=CCC(C(F)(F)F)CC1)n2Cc1ccc(Cl)c(F)c1 (centres unmarked) [Example E57, 7-(4-chloro-3-fluorobenzyl)-3-ethyl-1-(3-hydroxypropyl)-8-(4-(trifluoromethyl)cyclohex-1-en-1-yl)-3,7-dihydro-1H-purine-2,6-dione]
19 | 2.85 | Cn1c(=O)n(CCCO)c(=O)c2c1nc(C1(F)CCC(C(F)(F)F)CC1)n2Cc1ccc(F)cc1F (centres unmarked) [Example E65, 7-(2,4-difluorobenzyl)-8-(1-fluoro-4-(trifluoromethyl)cyclohexyl)-1-(3-hydroxypropyl)-3-methyl-3,7-dihydro-1H-purine-2,6-dione]
20 | 18.9 | Cn1c(=O)n(CCCO)c(=O)c2c1nc(C1(F)CCC(C(F)(F)F)CC1)n2Cc1ccc(F)cc1Cl (centres unmarked) [Example E67, 7-(2-chloro-4-fluorobenzyl)-8-(1-fluoro-4-(trifluoromethyl)cyclohexyl)-1-(3-hydroxypropyl)-3-methyl-3,7-dihydro-1H-purine-2,6-dione]
21 | 0.37 | Cn1c(=O)n(CCCO)c(=O)c2c1nc(C1(F)CCC(C(F)(F)F)CC1)n2Cc1ccc(F)c(Cl)c1 (centres unmarked) [Example E69, 7-(3-chloro-4-fluorobenzyl)-8-(1-fluoro-4-(trifluoromethyl)cyclohexyl)-1-(3-hydroxypropyl)-3-methyl-3,7-dihydro-1H-purine-2,6-dione]

Row | SMILES | IC50 [nM]
22 | C/C(=N\OC(C)(C)C)c1nc2c(c(=O)n(CCCO)c(=O)n2C)n1Cc1ccc(Cl)cc1 [Example E27, (E)-8-(1-(tert-butoxyimino)ethyl)-7-(4-chlorobenzyl)-1-(3-hydroxypropyl)-3-methyl-3,7-dihydro-1H-purine-2,6-dione] | 64.7
23 | Cn1c(=O)n(CCCO)c(=O)c2c1nc(C1=CC(F)C(C)(C)CC1)n2Cc1ccc(Cl)cc1 (centres unmarked) [Example E34] | 49.1
